Laboratory results taken from article PMC11845477, “Exploring the principles behind antibiotics with limited resistance” (Nature Communications, 2025).
Where a SMILES comes first, the peptide text is derived from it. Bridges are numbered along the chain shown (N, C = ends). [ ]: non-standard residue; d: D form. The star is where a group is joined. X2 = CC[C@H](C)CCCCC(=O)*; Dab = NCC[C@H](N)C(=O)O

Legend:
[1] = tested on: P. aeruginosa ATCC BAA-3107 (SEN) and P. aeruginosa LESB58 (MDR); experiment: Adaptive laboratory evolution (ALE), relative MIC of evolved lines; format: cell-based, Pseudomonas aeruginosa
Procedure, shortened: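 Ten parallel populations per antibiotic–ancestor pair were evolved in MHB at 37 °C, starting near 50% growth-inhibiting drug. Every 72 h they were passaged into 0.5–2.5× increasing concentrations, keeping the highest-drug well with OD600 > 0.2.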

[2] = tested on: polymyxin B-resistant lines of E. coli (EC-SEN); experiment: Cross-resistance of polymyxin B resistant evolved lines, relative MIC; format: cell-based, Escherichia coli
Procedure: 3 independently evolved lines from each investigated species were studied, including E. coli (EC), K. pneumoniae (KP), A. baumannii (AB), and P. aeruginosa (PA). […] The distances between antibiotics were computed using the Euclidean distance method based on the log-transformed MIC values. The clustering was performed using the complete linkage method. […] For detailed information on antibiotic and bacterial strain abbreviations, see Supplementary Data 1. Source data are provided as a Source Data file.
(§1) A robotic liquid handling system was used to automatically prepare a 11 to 16-step serial dilution in 384-well microtiter plates (Greiner). A final concentration of 5 × 10^5 bacterial cells per mL were inoculated into each well containing 60 µL MHB medium. Bacterial cultures were incubated at 37 °C with continuous shaking (Infors shaker, 900 rpm with 3 mm throw) for 18 hours (2 replicates from each). Cell growth was monitored by measuring the optical density (OD600 values, using Biotek Synergy microplate reader). MIC was defined as the antibiotic concentration of complete growth inhibition (i.e., OD600 < 0.05). Relative MIC was calculated as follows:1 relativeMIC=MICevolved/MICancestor […]
Each data point represents a distinct
Boxplots show the median, first and third quartiles, with whiskers showing the 5th and 95th percentiles. P values were calculated using Dunn's post-hoc test with Benjamini-Hochberg correction (NS indicates p > 0.05, ** / **** indicates p < 0.01 […]
(§2) For detailed information on antibiotic and bacterial strain abbreviations, see Supplementary Table 1. Source data are provided as a Source […]
(§3) (1 picture or pasted object on this page, not shown here)

[3] = tested on: polymyxin B-resistant lines of A. baumannii (AB-SEN); experiment: as above; format: cell-based, Acinetobacter baumannii
Source text: To further investigate potential overlaps in resistance mechanisms, we examined the extent of cross-resistance between polymyxin B and other antibiotics that target the bacterial membrane.
Fig. 7 Cross-resistance of polymyxin B resistant lines to ST and DT permeabilizer antibiotics. […] 3 independently evolved lines from each investigated species were studied, including E. coli (EC), K. pneumoniae (KP), A. baumannii (AB), and P. aeruginosa (PA). Gray color of the main heatmap indicates combinations not tested due to intrinsic resistance of ancestor strain. The additional heatmap to the right depicts genes mutated in each polymyxin B-adapted line and their involvement in specific cellular processes based on KEGG (Kyoto Encyclopedia of Genes and Genomes) and COG (Clusters of Orthologous Genes) databases. The distances between antibiotics were computed using the Euclidean distance method based on the log-transformed MIC values. The clustering was performed using the complete linkage method. […] For detailed information on antibiotic and bacterial strain abbreviations, see Supplementary Data 1. Source data are provided as a Source Data file.
as §1
Supplementary Figure 6. Susceptibility of Polymyxin B resistant lines to other ST and DT […]
dividing the MIC of the evolved line by that of the corresponding ancestor) of 12 polymyxin B resistant lines to ST and DT permeabilizer antibiotics used in this study. Each data point represents a distinct adaptive laboratory evolved polymyxin B resistant line. Boxplots show the median, first and third quartiles, with whiskers showing the 5th and 95th percentiles. P values were calculated using Dunn's post-hoc test with Benjamini-Hochberg correction (NS indicates p > 0.05, ** / **** indicates p < 0.01 / 0.0001, respectively). The resistance level of polymyxin B resistant lines to polymyxin B (PMB), […]
as §2, §3

[4] = EC-SEN, polymyxin B-resistant evolved line 6, MIC evolved/MIC ancestor
[5] = EC-SEN, polymyxin B-resistant evolved line 10, MIC evolved/MIC ancestor
[6] = polymyxin B-resistant evolved line 6 of EC-SEN, MIC relative to ancestor
[7] = polymyxin B-resistant evolved line 10 of EC-SEN, MIC relative to ancestor
[8] = AB-SEN, polymyxin B-resistant evolved line 2, MIC evolved/MIC ancestor
[9] = AB-SEN, polymyxin B-resistant evolved line 6, MIC evolved/MIC ancestor
[10] = AB-SEN, polymyxin B-resistant evolved line 9, MIC evolved/MIC ancestor
[11] = polymyxin B-resistant evolved line 2 of AB-SEN, MIC relative to ancestor
[12] = polymyxin B-resistant evolved line 6 of AB-SEN, MIC relative to ancestor
[13] = polymyxin B-resistant evolved line 9 of AB-SEN, MIC relative to ancestor

CC[C@H](C)CCCCC(=O)N[C@@H](CCN)C(=O)N[C@H](C(=O)N[C@@H](CCN)C(=O)N[C@H]1CCNC(=O)[C@H]([C@@H](C)O)NC(=O)[C@H](CCN)NC(=O)[C@H](CCN)NC(=O)[C@H](CC(C)C)NC(=O)[C@@H](Cc2ccccc2)NC(=O)[C@H](CCN)NC1=O)[C@@H](C)O [Polymyxin B] (X2-[Dab]T[Dab][Dab][Dab][dF]L[Dab][Dab]T; lactam 4-C (inferred); N-terminus assumed)
Relative MIC (log10) ([1]; PA-MDR (Pseudomonas aeruginosa LESB 58), evolved line 1): 1.505 log10 | Relative MIC (log10) ([1]; PA-MDR (Pseudomonas aeruginosa LESB 58), evolved line 6): 1.806 log10 | Relative MIC (log10) ([1]; PA-MDR, Pseudomonas aeruginosa LESB 58, evolved line 9): 1.806 log10 | Relative MIC (log10) ([1]; PA-MDR, Pseudomonas aeruginosa LESB 58, evolved line 2): 2.107 log10 | Relative MIC (log10) ([1]; PA-MDR, Pseudomonas aeruginosa LESB 58, evolved line 7): 1.204 log10 | Relative MIC (log10) ([1]; PA-SEN, Pseudomonas aeruginosa ATCC BAA 3107, evolved line 1): 1.505 log10 | Relative MIC (log10) ([1]; PA-SEN, Pseudomonas aeruginosa ATCC BAA 3107, evolved line 4): 1.505 log10 | Relative MIC (log10) ([1]; PA-SEN, Pseudomonas aeruginosa ATCC BAA 3107, evolved line 5): 1.505 log10 | Relative MIC (log10) ([1]; PA-SEN, Pseudomonas aeruginosa ATCC BAA 3107, evolved line 7): 1.204 log10 | Relative MIC (log10) ([1]; PA-SEN, Pseudomonas aeruginosa ATCC BAA 3107, evolved line 8): 1.204 log10 | Relative MIC ([2]; EC-SEN, polymyxin B-resistant evolved line 4, MIC evolved/MIC ancestor): 64 | Relative MIC [2, 4]: 32 | Relative MIC [2, 5]: 32 | Relative MIC ([2]; polymyxin B-resistant evolved line 4 of EC-SEN, MIC relative to ancestor): 64 | Relative MIC [2, 6]: 32 | Relative MIC [2, 7]: 32 | Relative MIC [3, 8]: 64 | Relative MIC [3, 9]: 1024 | Relative MIC [3, 10]: 64 | Relative MIC [3, 11]: 64 | Relative MIC [3, 12]: 1024 | Relative MIC [3, 13]: 64

colistin
Relative MIC [2, 4]: 32 | Relative MIC [2, 5]: 32 | Relative MIC [2, 6]: 32 | Relative MIC [2, 7]: 32 | Relative MIC [3, 8]: 32 | Relative MIC [3, 9]: 512 | Relative MIC [3, 10]: 32 | Relative MIC [3, 11]: 32 | Relative MIC [3, 12]: 512 | Relative MIC [3, 13]: 32

polymyxin-B
MIC of evolved line ([1]; PA-MDR (P. aeruginosa LESB 58), evolved line 4 of the given antibiotic): 4 µg/mL | MIC of evolved line ([1]; PA-MDR (P. aeruginosa LESB 58), evolved line 5 of the given antibiotic): 4 µg/mL | MIC of evolved line ([1]; PA-MDR (P. aeruginosa LESB 58), evolved line 7 of the given antibiotic): 32 µg/mL | MIC of evolved line ([1]; PA-MDR (P. aeruginosa LESB 58), evolved line 8 of the given antibiotic): 8 µg/mL | MIC of evolved line ([1]; PA-MDR (P. aeruginosa LESB 58), evolved line 10 of the given antibiotic): 16 µg/mL | MIC of evolved line ([1]; PA-MDR LESB 58, evolved line 1): 64 µg/mL | MIC of evolved line ([1]; PA-MDR LESB 58, evolved line 2): 256 µg/mL | MIC of evolved line ([1]; PA-MDR LESB 58, evolved line 3): 16 µg/mL | MIC of evolved line ([1]; PA-SEN (P. aeruginosa ATCC BAA 3107), evolved line 1 of the given antibiotic): 32 µg/mL | MIC of evolved line ([1]; PA-SEN (P. aeruginosa ATCC BAA 3107), evolved line 4 of the given antibiotic): 32 µg/mL | MIC of evolved line ([1]; PA-SEN (P. aeruginosa ATCC BAA 3107), evolved line 5 of the given antibiotic): 32 µg/mL | MIC of evolved line ([1]; PA-SEN (P. aeruginosa ATCC BAA 3107), evolved line 6 of the given antibiotic): 4 µg/mL | MIC of evolved line ([1]; PA-SEN (P. aeruginosa ATCC BAA 3107), evolved line 7 of the given antibiotic): 16 µg/mL | MIC of evolved line ([1]; PA-SEN (P. aeruginosa ATCC BAA 3107), evolved line 8 of the given antibiotic): 16 µg/mL | MIC of evolved line ([1]; PA-SEN (P. aeruginosa ATCC BAA 3107), evolved line 9 of the given antibiotic): 4 µg/mL | MIC of evolved line ([1]; PA-SEN (P. aeruginosa ATCC BAA 3107), evolved line 10 of the given antibiotic): 4 µg/mL
